Counter-ions that a name gives are not always drawn.
Legend:
Experiment in all cases: IC50 (cell viability) (log10 M)
Conditions in all cases: 4 days
[1] = tested on: SKM1
How it was run: (§1)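 Fourteen leukemia cell lines were plated on extracellular-matrix-coated 384-well plates. Drugs were added robotically the next day at eight concentrations spanning 4–5 logs within 10^–12–10^–4 M, tailored per drug, in duplicate. Viability was read with CellTiter-Glo after 4 days. IC50 is the concentration where a fitted four-parameter curve crosses 50% viability, in log10 M; where that is not reached, the highest tested concentration is entered.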

[2] = tested on: OCI-AML2
How it was run: as §1

[3] = tested on: MV4.11
How it was run: as §1

[4] = tested on: U937
How it was run: as §1

[5] = tested on: EOL-1
How it was run: as §1

[6] = tested on: MOLM/13
How it was run: as §1

[7] = tested on: KG1
How it was run: as §1

[8] = tested on: MOLM/16
How it was run: as §1

[9] = tested on: KASUMI1
How it was run: as §1

[10] = tested on: HL60
How it was run: as §1

IC50 (log10 M) [1] | IC50 (log10 M) [2] | IC50 (log10 M) [3] | IC50 (log10 M) [4] | IC50 (log10 M) [6] | IC50 (log10 M) [8] | IC50 (log10 M) [10] | SMILES | IC50 (log10 M) [5] | IC50 (log10 M) [7] | IC50 (log10 M) [9]
-5.33 | > -5 | > -5 | > -5 | > -5 | -5.42 | > -5 | CCCS(=O)(=O)Nc1ccc(F)c(C(=O)c2c[nH]c3ncc(Cl)cc23)c1F [PLX-4720] | -5.41 | > -5 | > -5
< -8.48 | < -8.48 | < -8.48 | < -8.48 | < -8.48 | < -8.48 | < -8.48 | CC(=O)O[C@H]1C(=O)[C@@]2(C)[C@H]([C@H](OC(=O)c3ccccc3)[C@]3(O)C[C@H](OC(=O)[C@H](O)[C@@H](NC(=O)c4ccccc4)c4ccccc4)C(C)=C1C3(C)C)[C@]1(OC(C)=O)CO[C@@H]1C[C@@H]2O [Paclitaxel] | < -8.48 | < -8.48 | < -8.48
-8.46 | -8.5 | -8.66 | -8.39 | -8.24 | -8.71 | -8.45 | Cc1[nH]c2ccccc2c1CCNCc1ccc(/C=C/C(=O)NO)cc1 [Panobinostat] | -8.74 | -8.44 | -8.48
> -5 | > -5 | > -5 | > -5 | > -5 | > -5 | > -5 | Cc1ccc(Nc2nccc(N(C)c3ccc4c(C)n(C)nc4c3)n2)cc1S(N)(=O)=O [Pazopanib] | -5.46 | > -5 | > -5
> -5 | > -5 | > -5 | > -5 | > -5 | > -5 | > -5 | Nc1nc2[nH]cc(CCc3ccc(C(=O)N[C@@H](CCC(=O)O)C(=O)O)cc3)c2c(=O)[nH]1 [Pemetrexed] | > -5 | > -5 | > -5
> -5 | > -5 | > -5 | > -5 | > -5 | > -5 | > -5 | OC[C@H]1O[C@@H](n2cnc3c2N=CNC[C@H]3O)C[C@@H]1O [Pentostatin] | > -5 | > -5 | > -5
> -5 | > -5 | > -5 | > -5 | > -5 | > -5 | > -5 | CC[C@H](C)C(=O)O[C@H]1C[C@H](O)C=C2C=C[C@H](C)[C@H](CC[C@@H](O)C[C@@H](O)CC(=O)O)[C@H]21 [Pravastatin] | > -5 | > -5 | > -5
> -5 | > -5 | > -5 | > -5 | > -5 | -5 | > -5 | CC[C@H](CO)Nc1nc(NCc2ccccc2)c2ncn(C(C)C)c2n1 [R-roscovitine] | > -5 | > -5 | > -5
-7.58 | -8.07 | -6.17 | -5.33 | -5.65 | -5.91 | -7.42 | COc1cc(F)c(F)c(Nc2ccc(I)cc2F)c1NS(=O)(=O)C1(C[C@H](O)CO)CC1 [RDEA-119] | -6.65 | -6.22 | -6.56
-5.79 | > -5 | -6.28 | < -8.34 | > -5 | -6.06 | -5.04 | CO[C@H]1C[C@@H]2CC[C@@H](C)[C@@](O)(O2)C(=O)C(=O)N2CCCC[C@H]2C(=O)O[C@H]([C@H](C)C[C@@H]2CC[C@@H](O)[C@H](OC)C2)CC(=O)[C@H](C)/C=C(\C)[C@@H](O)[C@@H](OC)C(=O)[C@H](C)C[C@H](C)/C=C/C=C/C=C/1C [Rapamycin] | < -8.34 | > -5 | -5.1
-5.55 | -5.49 | -7.53 | -5.36 | -7.51 | -6.4 | -5.34 | CN1CCC(CNc2ccc3ncc(-c4cccc(OC(F)(F)F)c4)n3n2)CC1 [SGI-1776] | -7.6 | -5.53 | -5.68
-5.63 | -5.56 | -5.88 | -5.53 | -5.82 | -6.82 | -5.23 | COc1cc(Nc2c(C#N)cnc3cc(OCCCN4CCN(C)CC4)c(OC)cc23)c(Cl)cc1Cl [SKI-606] | -6.64 | -5.99 | -5.37
-6.94 | -7.04 | -6.84 | -6.88 | -7.06 | -6.51 | -6.78 | CC(C)(C)c1cnc(CSc2cnc(NC(=O)C3CCNCC3)s2)o1 [SNS-032] | -7.26 | > -6 | -6.66
> -6 | > -6 | -8.56 | -6.23 | -7.81 | -6 | > -6 | CNC(=O)c1cc(Oc2ccc(NC(=O)Nc3ccc(Cl)c(C(F)(F)F)c3)cc2)ccn1 [Sorafenib] | -8.9 | > -6 | > -6
> -6 | > -6 | -8.14 | > -6 | -7.8 | -6.45 | > -6 | CCN(CC)CCNC(=O)c1c(C)[nH]c(/C=C2\C(=O)Nc3ccc(F)cc32)c1C [Sunitinib] | -8.66 | > -6 | > -6
> -5 | > -5 | > -5 | > -5 | > -5 | > -5 | > -5 | Cc1cc(C(C)Nc2ccccc2)c2nc(N3CCOCC3)cc(=O)n2c1 (stereo not given) [TGX-221] | -5.06 | > -5 | > -5
-6.04 | -6.42 | -8.07 | > -6 | -7.91 | -6.6 | > -6 | CN1CCN(c2ccc3nc(-c4c(N)c5c(F)cccc5[nH]c4=O)[nH]c3c2)CC1 [TKI258] | -8.22 | -6.78 | -6.25
-5.51 | -5.45 | -5.67 | -5.73 | -5.52 | -6.29 | -5.45 | NC(=O)Nc1sc(-c2ccc(F)cc2)cc1C(N)=O [TPCA-1] | -6.14 | -5.87 | -5.74

IC50 (log10 M) [1] | IC50 (log10 M) [2] | IC50 (log10 M) [3] | IC50 (log10 M) [4] | IC50 (log10 M) [6] | IC50 (log10 M) [8] | IC50 (log10 M) [10] | SMILES | IC50 (log10 M) [5] | IC50 (log10 M) [7] | IC50 (log10 M) [9]
> -5 | -5.38 | -6.79 | > -5 | > -5 | > -5 | > -5 | CC1(C)CCC(C)(C)c2cc(NC(=O)c3ccc(C(=O)O)cc3)ccc21 [Tamibarotene] | -8.22 | > -5 | > -5
-5.01 | -5.33 | -5.38 | -5.43 | > -5 | -5.43 | -5.28 | CC/C(=C(\c1ccccc1)c1ccc(OCCN(C)C)cc1)c1ccccc1 [Tamoxifen] | -5.11 | -5.16 | -5.23
> -5 | > -5 | -6.16 | > -5 | -6.98 | > -5 | > -5 | COc1cc2c(N3CCN(C(=O)Nc4ccc(OC(C)C)cc4)CC3)ncnc2cc1OCCCN1CCCCC1 [Tandutinib] | -7.82 | > -5 | > -5
> -5 | > -5 | > -5 | > -5 | > -5 | > -5 | > -5 | Cn1nnc2c(C(N)=O)ncn2c1=O [Temozolomide] | -5.14 | > -5 | > -5
-5.46 | -5.46 | -6.33 | -7.89 | -5.4 | -6.13 | -5.09 | CO[C@H]1C[C@@H]2CC[C@@H](C)[C@@](O)(O2)C(=O)C(=O)N2CCCC[C@H]2C(=O)O[C@H]([C@H](C)C[C@@H]2CC[C@@H](OC(=O)C(C)(CO)CO)[C@H](OC)C2)CC(=O)[C@H](C)/C=C(\C)[C@@H](O)[C@@H](OC)C(=O)[C@H](C)C[C@H](C)/C=C/C=C/C=C/1C [Temsirolimus] | -8.34 | > -5 | -5.22
-5.34 | -5.95 | -5.79 | -5.09 | -5.97 | -5.43 | -5.12 | Nc1nc2[nH]cnc2c(=S)[nH]1 [Thioguanine] | -6.18 | -5.12 | -5.09
-5.92 | -6.74 | -6.7 | -7.51 | -5.86 | < -8.34 | -5.97 | Cn1cncc1[C@@](N)(c1ccc(Cl)cc1)c1ccc2c(c1)c(-c1cccc(Cl)c1)cc(=O)n2C [Tipifarnib] | < -8.34 | -6.6 | -6.28
< -8.34 | < -8.34 | < -8.34 | < -8.34 | < -8.34 | < -8.34 | -8.26 | CC[C@@]1(O)C(=O)OCc2c1cc1n(c2=O)Cc2cc3c(CN(C)C)c(O)ccc3nc2-1 [Topotecan HCl] | < -8.34 | < -8.34 | -8.14
> -5 | > -5 | -5.23 | -6.37 | -5.17 | -6.4 | > -5 | CC(C)C[C@@H](C(=O)N[C@H](C(=O)OC1CCCC1)c1ccccc1)[C@H](O)C(=O)NO [Tosedostat] | -5.46 | -5.48 | > -5
-6.61 | -8.4 | < -8.48 | < -8.48 | < -8.48 | < -8.48 | -5.64 | Cc1cc(Nc2cc(N3CCN(C)CC3)nc(Sc3ccc(NC(=O)C4CC4)cc3)n2)n[nH]1 [Tozasertib] | < -8.48 | -7.15 | -6.82
-5.91 | -6.18 | -7.2 | -6.27 | -6.43 | > -5 | -5.24 | CC1=C(/C=C/C(C)=C/C=C/C(C)=C/C(=O)O)C(C)(C)CCC1 [Tretinoin] | -8.11 | > -5 | -5.14
> -5 | > -5 | > -5 | > -5 | > -5 | > -5 | > -5 | CCCC(CCC)C(=O)O [Valproic acid] | > -5 | > -5 | > -5
> -5 | > -5 | -5.38 | > -5 | > -5 | > -5 | > -5 | COc1cc2/c(=N/c3ccc(Br)cc3F)nc[nH]c2cc1OCC1CCN(C)CC1 [Vandetanib] | -5.82 | -5.41 | -5.19
> -5 | > -5 | > -5 | > -5 | > -5 | > -5 | > -5 | Clc1ccc(Nc2nnc(Cc3ccncc3)c3ccccc23)cc1 [Vatalanib] | -6.19 | > -5 | -5.26
< -8.48 | < -8.48 | < -8.48 | < -8.48 | < -8.48 | < -8.48 | < -8.48 | CC[C@]1(O)C[C@@H]2CN(CCc3c([nH]c4ccccc34)[C@@](C(=O)OC)(c3cc4c(cc3OC)N(C)[C@H]3[C@@](O)(C(=O)OC)[C@H](OC(C)=O)[C@]5(CC)C=CCN6CC[C@]43[C@@H]65)C2)C1 [Vinblastine sulfate] | < -8.48 | < -8.48 | < -8.48
< -8.48 | < -8.48 | < -8.48 | < -8.48 | < -8.48 | < -8.48 | < -8.48 | CC[C@]1(O)C[C@H]2CN(CCc3c([nH]c4ccccc34)[C@@](C(=O)OC)(c3cc4c(cc3OC)N(C=O)[C@H]3[C@@](O)(C(=O)OC)[C@H](OC(C)=O)[C@]5(CC)C=CCN6CC[C@]43[C@@H]65)C2)C1 [Vincristine sulfate] | < -8.48 | < -8.48 | < -8.48
-7.84 | -7.68 | -7.87 | < -8.34 | -7.99 | -7.87 | -8.33 | CCC1=C[C@@H]2CN(C1)Cc1c([nH]c3ccccc13)[C@@](C(=O)OC)(c1cc3c(cc1OC)N(C)[C@H]1[C@@](O)(C(=O)OC)[C@H](OC(C)=O)[C@]4(CC)C=CCN5CC[C@]31[C@@H]54)C2 [Vinorelbine tartrate] | < -8.34 | -7.11 | -7.98

SMILES | IC50 (log10 M) [1] | IC50 (log10 M) [2] | IC50 (log10 M) [3] | IC50 (log10 M) [4] | IC50 (log10 M) [6] | IC50 (log10 M) [8] | IC50 (log10 M) [10] | IC50 (log10 M) [5] | IC50 (log10 M) [7] | IC50 (log10 M) [9]
CN[C@@H]1C[C@H]2O[C@@](C)([C@@H]1OC)n1c3ccccc3c3c4c(c5c6ccccc6n2c5c31)C(=O)NC4 [Staurosporine] | -8.41 | -9.49 | -9.79 | -7.91 | -9.32 | -8.09 | -7.56 | -9.94 | -7.72 | -7.76

— the supplement of paper PMC5752671
